In article PMC10857906, “PROTAC-mediated NR4A1 degradation as a novel strategy for cancer immunotherapy” (The Journal of Experimental Medicine, 2024):

Key:
[1] = target: T1, NR4A1 (Mus musculus, UniProt P12813); experiment: NR4A1 degradation in SM1 and SW1 mouse melanoma cell lines (immunoblotting); format: cell-based; conditions: 16 h
T1 construct: from tissue; host or cells: MC38 tumours in mice (tumour lysates)
Experimental: Human melanoma cell lines: A375 and CHL-1 (gifts from Dr. D. Zhou, the University of Texas Health Science Center, San Antonio, TX, USA) were cultured in Dulbecco’s Modified Eagles’ Medium (DMEM, D5796; Sigma-Aldrich), WM164 and M229 (gifts from Dr. K.S.M. Smalley’s lab) were cultured in RPMI-1640 (R8758; Sigma-Aldrich). Mouse melanoma cell lines: B16F10 (CRL-6475, ATCC) was cultured in DMEM, SW1 and SM1 (gift from Dr. K.S.M. Smalley, Moffitt Cancer Center, Tampa, FL, USA) were cultured in RPMI. Human epithelial kidney cell lines: HEK293T (293T, CRL-3216; ATCC) and Vhl-KO-293T (gift from Dr. D. Zhou, the University of Texas Health Science Center, San Antonio, TX, USA) were cultured in DMEM. Mouse colon cancer cell lines: MC38 (ENH204-FP; Kerafast Inc.) was cultured in DMEM supplemented with 1 mM glutamine, […] non-essential amino acids (11140050; Thermo Fisher Scientific), 1 mM sodium pyruvate (11360070; Thermo Fisher Scientific), and 10 mM HEPES (15630080; Thermo Fisher Scientific). […]
Samples were lysed using radioimmunoprecipitation assay buffer (RIPA) lysis buffer (150 mM NaCl, 5 mM EDTA, 50 mM Tris pH 8.0, 0.5% sodium deoxycholate, 1% NP-40, 0.1% SDS) supplemented with 1 mM dithiothreitol and protease inhibitors. The lysates were separated by SDS-PAGE and analyzed using standard western blotting procedures ([Khan et al., 2019]). […]

[2] = test system: human CD8^+ Texh cells; experiment: T cell exhaustion in vitro, human PBMC-derived T cells; format: cell-based; conditions: 500 nM, 48 h
Experimental: We conducted experiments involving the isolations and treatments of CD8^+ T cells from both OT-1 mice (C57BL/6-Tg(TcraTcrb)1100Mjb/J; Jackson Laboratories) and T cells from human PBMCs. CD8^+ T cells were isolated from OT-1 mice using the EasySep Mouse CD8 T Cell Isolation Kit, followed by daily treatment with 10 ng/ml ovalbumin (257–264) (S7951-1MG; Sigma-Aldrich) for specified durations. After 3 days of ovalbumin treatment, OT-1 CD8^+ T cells were activated, and after 7 days of treatment, they reached a state of exhaustion. Human T cells were isolated from PBMCs using the EasySep Human CD3 Positive Selection Kit II (17851; STEMCELL) and cultured with Dynabeads (Cell/Dynabeads: 1:1, A56992; Thermo Fisher Scientific) for 3 days to induce activation and for 7 days to induce exhaustion. Both mouse and human T cells received a treatment of 500 nM NR-V04 2 days prior to harvesting. To characterize the T cell subtypes, we employed specific flow cytometry antibodies and conducted flow cytometry analysis.
Mouse tumors were excised and ∼200 mg of tumor tissue was enzymatically and mechanically digested using the mouse Tumor Dissociation Kit (Miltenyi Biotec) to obtain a single-cell suspension. […] Flow cytometry was performed on a three laser Cytek Aurora Cytometer (Cytek Biosciences) and analyzed using FlowJo software (BD Biosciences). […]

T1 sequence (P12813 whole entry): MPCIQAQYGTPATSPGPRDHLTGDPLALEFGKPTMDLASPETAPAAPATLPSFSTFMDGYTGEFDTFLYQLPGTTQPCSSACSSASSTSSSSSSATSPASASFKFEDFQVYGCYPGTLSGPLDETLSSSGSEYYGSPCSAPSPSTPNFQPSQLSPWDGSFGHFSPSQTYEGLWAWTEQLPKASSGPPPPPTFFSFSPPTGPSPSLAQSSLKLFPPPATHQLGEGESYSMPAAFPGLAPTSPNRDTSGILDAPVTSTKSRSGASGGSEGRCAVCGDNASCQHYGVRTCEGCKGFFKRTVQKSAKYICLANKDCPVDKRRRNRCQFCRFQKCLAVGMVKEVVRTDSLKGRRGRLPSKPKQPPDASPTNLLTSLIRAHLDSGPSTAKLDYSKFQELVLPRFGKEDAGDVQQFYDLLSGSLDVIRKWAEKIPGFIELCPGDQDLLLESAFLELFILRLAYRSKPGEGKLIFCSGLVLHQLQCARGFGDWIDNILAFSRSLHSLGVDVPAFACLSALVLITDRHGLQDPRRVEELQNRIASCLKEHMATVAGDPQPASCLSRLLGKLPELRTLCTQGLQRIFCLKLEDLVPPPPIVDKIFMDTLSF

## CC1=C(O)C(=O)C=C2C1=CC=C1[C@@]2(C)CC[C@@]2(C)[C@@H]3C[C@](C)(C(=O)NCCOCCOCCOCCOCC(=O)N[C@H](C(=O)N4C[C@H](O)C[C@H]4C(=O)N[C@@H](C)c4ccc(-c5scnc5C)cc4)C(C)(C)C)CC[C@]3(C)CC[C@]12C [NR-V04]
[1]; SM1 mouse melanoma cells
  NR4A1 protein level: reduced NR4A1 protein level
[1]; SW1 mouse melanoma cells
  NR4A1 protein level: reduced NR4A1 protein level
[2]
  CD8^+ Texh cells (CD8^+CTLA-4^+Tim3^+): significant reduction in CD8^+ Texh cells
